Values quoted from earlier work, collected in patent US20220127231A1, “PROCESS FOR THE PREPARTION OF AMIFAMPRIDINE PHOSPHATE” (SHILPA MEDICARE LTD, priority 2020, published 2022).

Tests used:
[1] = 1% solution in water at 25° C.

For Nc1ccncc1N [Amifampridine phosphate], the “solubility in dimethyl sulfoxide” value (dimethyl sulfoxide) is given as “slightly soluble”, the solubility in dimethylformamide (dimethylformamide) is given as “very slightly soluble” and the solubility in ethanol (ethanol) is given as “very slightly soluble”. For the same compound, the “solubility in glacial acetic acid” value (glacial acetic acid) was “slightly soluble”, the solubility in methanol (methanol) was “slightly soluble” and the solubility in water (water) was “practically soluble”. The “pH of 1% solution in water” value [1] was 4.6±0.2.
